The source of these data is patent US20250121067A1, “WATER-SOLUBLE CANNABINOID PRODRUGS COMPOSITIONS AND METHODS OF SYNTHESIZING THE SAME” (Trait Biosciences, Inc., priority 2022, published 2025).

The conditions of data set [1]: intrinsic aqueous solubility; Int. J. Pharmaceutics 2020, 589, 119812; cited from earlier work.
Data set [2] can be described thus: physchem. As to conditions: aqueous medium, thermodynamic from solid, room temperature.
Protocol: The thermodynamic aqueous solubility of CBD and CBG glycine conjugates in salt forms was determined using the equilibrium shake method outlined in the United States Pharmacopeia (USP) General Chapter <1236>Solubility Measurements (Table 1).
Where [3] appears, read: Solubility (mg/mL) CBD/CBG equivalent, expressed as CBD/CBG equivalent.
Setting [4] is: Solubility (mg/mL) Salt derivative, expressed as salt derivative.

Broadly, the solubility is the dissolved amount per volume that the medium holds.

On to `C=C(C)[C@@H]1CCC(C)=C[C@H]1c1c(O)cc(CCCCC)cc1O` [CBD, cannabidiol], for which the “solubility of CBD” value in data set [1] is 0.1 µg/mL.

Take `C=C(C)[C@@H]1CCC(C)=C[C@H]1c1c(O)cc(CCCCC)cc1OC(=O)NCC(=O)[O-].[Na+]` [Example 3, Sodium ((((1′R,2′R)-6-hydroxy-5′-methyl-4-pentyl-2′-(prop-1-en-2-yl)-1′,2′,3′,4′-tetrahydro-[1,1′-biphenyl]-2-yl)oxy)carbonyl)glycinate]: the solubility in data set [2] (setting [3]) worked out at 3140 µg/mL; in data set [2] (setting [4]) it was 4370 µg/mL.

On to `CCCCCc1cc(O)c(C/C=C(\C)CCC=C(C)C)c(OC(=O)NCC(=O)[O-])c1.[Na+]` [Example 10, Sodium (E)-((2-(3,7-dimethylocta-2,6-dien-1-yl)-3-hydroxy-5-pentylphenoxy)carbonyl)glycinate], for which the values for the solubility in data set [2] (setting [3]) and in data set [2] (setting [4]) were 10000 µg/mL and 13300 µg/mL, respectively.
